Measurements as given in patent US6444871B1, “Tetracycline repressor regulated mammalian cell transcription and viral replication switch” (Brigham and Women's Hospital, priority 1997, dated 2002).

Tested on: tet operator-bearing hCMV major immediate-early enhancer-promoter
Assay: hEGF expression in porcine partial thickness wounds after particle-mediated gene transfer
Assay type: in vivo, pig
Conditions: 500 mg tetracycline intravenous; day 2 to day 3 post-gene transfer
Experimental: FIG. 5. In vivo regulation of the hCMV major immediate-early enhancer-promoter by the tet repressor. A total of 18 partial thickness wounds ([…]) were created on porcine dorsal skin. Nine wounds received 0.2 μg of pCMVtetOEGF and 0.8 μg of pcDNA3 vector DNA and the others received 0.2 μg of pCMVtetOEGF and 0.8 μg of pcDNA3-tetR by particle-mediated gene transfer. After particle bombardment, each transfected wound was enclosed in a sealed vinyl adhesive chamber containing 1.2 ml of isotonic saline in the presence of 100 units/ml penicillin and 100 μg/ml streptomycin. Wound fluid was collected from the chambers at 22, 46 and 70 hours after gene transfer and stored at −70° C. Following collection of wound fluid at each indicated time point, a new chamber was applied. Each pig was given 500 mg of tetracycline by intravenous injection at 46 hours after gene transfer. hEGF expression in wound fluid was determined by ELISA. The vertical line associated with each bar represents standard error. […]
Preparation of cartridges with coated DNA-gold beads for Accell (Agracetus/Geniva, Inc.) particle-mediated gene transfer and the utilization of the Accell helium gene gun were according to the protocol provided by Geniva, Inc. (8520 University Green, Middleton, Wis. 53562). […] Levels of EGF in wound fluid was determined by ELISA with anti-HEGF specific antibody. […]

## CN(C)[C@@H]1C(O)=C(C(N)=O)C(=O)[C@@]2(O)C(O)=C3C(=O)c4c(O)cccc4[C@@](C)(O)[C@H]3C[C@@H]12 [tetracycline]
  increase of human EGF expression in wounds receiving pCMVtetOEGF and pcDNA3-tetR: 4 fold
